The source of these data is patent US12522593B2, “Azacycloalkyl carbonyl cyclic amine compound” (Alivexis, Inc., priority 2022, dated 2026).

One test addresses human recombinant CTSC (Homo sapiens (Human), UniProt P53634). The test is described as follows: CTSC inhibition assay (in vitro), fluorescent substrate GF-AFC. The format is biochemical. To be noted: 30 μmol/L GF-AFC, pH 5.0, 25° C. On the procedure: 1. CTSC Inhibition Assay (In Vitro)
A test specimen was evaluated by a CTSC inhibition assay using a fluorescent substrate GF-AFC (Gly-Phe-7-Amino-4-trifluoromethylcoumarin, MP Biomedical, 03AFC03325). Since the GF-AFC is converted by CTSC to aminotrifluoromethylcoumarin having a specific fluorescence wavelength and the produced amount is proportional to CTSC activity, quantitative analysis was performed by measuring a fluorescence intensity with a plate reader. CTSC inhibition assay for each compound was performed using a polystyrene-made non-adhesive surface-treated black 384 well plate under the following conditions.
A human recombinant CTSC (R&D systems, 1071-CY) was dissolved in a CTSC active cocktail (20 ng/mL of human recombinant cathepsin L (R&D systems, 952-CY, 25 mmol/L MES/NaOH (pH: 6.0), 5 mmol/L dithiothreitol (DTT)) so as to be 100 ng/mL and incubated at 18° C. for 30 minutes. The solution was diluted with a CTSC assay buffer (50 mmol/L MES/NaOH (pH: 5.0), 50 mmol/L NaCl, 0.001% Triton X-100, mmol/L DTT) so as to be 2 ng/mL in a case of performing CTSC inhibition assay.
The test specimen was dissolved in dimethylsulfoxide (DMSO) at 10 mmol/L to prepare a stock solution. In a case where a solution in which the stock solution was diluted 15-fold with DMSO was used as the maximum evaluation concentration (0.667 mmol/L), 5-fold dilution was repeated in DMSO from the solution to prepare a serially diluted solution. 248.8 μL of the CTSC assay buffer was added to 1.12 μL of the serially diluted sample prepared in the DMSO to prepare a solution of a CTSC inhibition assay compound.
The final composition of the CTSC inhibition assay mixture was 0.66 ng/mL activated CTSC, 50 mmol/L MES/NaOH (pH: 5.0), 50 mmol/L NaCl, 0.001% Triton X-100, 5 mmol/L DTT, 30 μmol/L GF-AFC, and 0.15% DMSO, and the procedure was as follows. That is, 4 μL of the compound solution and 4 μL of the 2 ng/mL activated CTSC solution were mixed with each other in a 384 well plate and incubated at 25° C. for 30 minutes. Thereafter, 4 μL of the GF-AFC solution dissolved in the CTSC assay buffer was added to the mixture so as to be 90 μmol/L. After mixing to be uniform, a fluorescence emission intensity at 505 nm in a case of being excited at 390 nm after incubating at 25° C. for 1 hour was measured with a plate reader. A 4-parameter regression analysis was performed with GraphPad Prism (manufactured by GraphPad Software) from a plot of the fluorescence intensity at 505 nm and the sample concentration, and an IC50 value was calculated.
Results of test compounds of Formula (I) are shown in Table 1 as IC50 (nM) values for which 50% inhibition concentration is calculated based on CTSC inhibition (%). In the table, Ex indicates an example number.

The next test deals with CTSC in U937 cells (Homo sapiens (Human), UniProt P53634). The test can be described thus: Intracellular CTSC inhibition assay (in vitro), LLOMe-induced cell death in U937 cells. The test is classed as cell-based. To be noted: 3 hours culture, CellTiter-Glo. On the procedure:
2. Intracellular CTSC Inhibition Assay (In Vitro)
A test specimen was evaluated by a degree of cell death in a case where a substrate LLOMe (L-Leucyl-L-Leucine methyl ester, hydrobromide salt, Sigma, 555045152) was added to U937 cells. The LLOMe is taken up into the cells by endocytosis and cleaved by CTSC. A product thereof induces lysosomal damage in cells and causes cell death in leukocytes and the like. Therefore, since the degree of cell death correlates with an amount of degradation of LLOMe, that is, with CTSC activity, by quantitatively analyzing the cell death, CTSC inhibitory activity of the test specimen in the cell was determined. CTSC inhibition assay was performed using a polystyrene-made white 384 well plate.
As the test specimen, a stock solution dissolved in DMSO was prepared so as to be 0.2 mmol/L, and in a case where a solution in which the stock solution was diluted 50-fold with a RPMI-1640 medium including 10% FBS was used as the maximum evaluation concentration (4000 nmol/L), a serially diluted solution was prepared by diluting the solution 3-fold with the medium. Thereafter, a 4-fold concentrated test specimen solution with the target final concentration was prepared.
U937 cells were cultured in a RPMI-1640 medium including 10% FBS, and diluted to prepare 90,000 cells/mL of cell suspension on the day of assay. 10 μL of the cell suspension was seeded per well. Next, 10 μL of the test specimen solution having a concentration 4 times the target final concentration was added thereto, and the mixture was allowed to stand for 30 minutes. Thereafter, 20 μL of a 300 μmol/L LLOMe solution dissolved in a RPMI-1640 medium including 10% FBS was added thereto, and the cells were cultured for 3 hours. After completion of the culture, 40 μL of CellTiter-Glo (registered trademark) reagent (Promega, G7570) was added to each well and mixed. After 15 minutes, 20 μL of the reaction solution in each well was transferred to a white 384 well plate, and a chemiluminescence intensity was measured with a plate reader. A 4-parameter regression analysis was performed with GraphPad Prism (manufactured by GraphPad Software) from a plot of the luminescence intensity and the sample concentration, and an IC50 value was calculated.
Results of test compounds of Formula (1) are shown in Table 2 as IC50 (nM) values for which 50% inhibition concentration is calculated based on CTSC inhibition (%). In the table, Ex indicates an example number.
A general note: ATP-based viability assays read luminescence as a measure of living cells.

Chain of CTSC in U937 cells (P53634 25-463): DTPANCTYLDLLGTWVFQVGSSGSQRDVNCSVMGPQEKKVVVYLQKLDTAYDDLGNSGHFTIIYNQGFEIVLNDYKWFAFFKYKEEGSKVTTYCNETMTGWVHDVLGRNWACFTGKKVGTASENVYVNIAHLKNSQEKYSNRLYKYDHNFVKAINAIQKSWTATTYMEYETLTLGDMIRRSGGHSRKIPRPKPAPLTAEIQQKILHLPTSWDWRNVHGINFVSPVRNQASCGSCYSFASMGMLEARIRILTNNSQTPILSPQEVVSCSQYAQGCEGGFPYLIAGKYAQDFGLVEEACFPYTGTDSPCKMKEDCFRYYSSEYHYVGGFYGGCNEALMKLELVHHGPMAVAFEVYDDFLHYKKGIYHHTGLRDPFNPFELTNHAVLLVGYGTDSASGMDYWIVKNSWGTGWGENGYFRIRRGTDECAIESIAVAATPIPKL
Chain of human recombinant CTSC (P53634 25-134): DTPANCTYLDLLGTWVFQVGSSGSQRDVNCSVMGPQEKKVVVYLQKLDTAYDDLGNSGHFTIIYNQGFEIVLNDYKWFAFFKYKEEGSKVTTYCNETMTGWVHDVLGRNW
Chain of human recombinant CTSC (P53634 231-394): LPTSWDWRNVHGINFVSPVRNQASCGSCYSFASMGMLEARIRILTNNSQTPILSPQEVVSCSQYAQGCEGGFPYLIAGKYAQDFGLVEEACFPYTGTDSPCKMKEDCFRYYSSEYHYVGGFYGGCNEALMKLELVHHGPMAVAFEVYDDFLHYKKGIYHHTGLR
Chain of human recombinant CTSC (P53634 395-463): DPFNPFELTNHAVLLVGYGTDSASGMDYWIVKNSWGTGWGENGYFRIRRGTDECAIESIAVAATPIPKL

One may read the IC50 as the concentration that inhibits the measured activity by half. As to `CC(C)C1(c2nc(C3CC(C)(C)C3)no2)CN(C(=O)[C@@H]2CC[C@@]3(CCO3)CN2)C1` [Example 29], the IC50 at human recombinant CTSC was determined as 1.47 nM; against CTSC in U937 cells, 11.3 nM.
For `CC(C)C1(c2noc(C3CCC(F)(F)CC3)n2)CCN(C(=O)[C@@H]2C[C@H](S(C)(=O)=O)CN2)CC1` [Example 30], the IC50 at human recombinant CTSC and against CTSC in U937 cells was more than 1000 nM each time.
As for `O=C([C@@H]1C[C@@H](O)C2(CCC2)CN1)N1CCC(c2noc(C3CCC(F)(F)CC3)n2)(C(F)(F)F)CC1` [Example 31, (4-(5-(4,4-Difluorocyclohexyl)-1,2,4-oxadiazol-3-yl)-4-(trifluoromethyl)piperidin-1-yl)((7S,9R)-9-hydroxy-6-azaspiro[3.5]nonan-7-yl)methanone], the half-inhibitory concentration (IC50) worked out at 0.31 nM on human recombinant CTSC and 0.22 nM against CTSC in U937 cells.
For the molecule `O=C([C@@H]1C[C@@H](O)C2(CCC2)CN1)N1CCC(C(=O)N2CCOC3(CC3)C2)(C(F)(F)F)CC1` [Example 32], the concentration for half-maximal inhibition (IC50) amounted to 25.5 nM on human recombinant CTSC and 8.84 nM at CTSC in U937 cells.
For `CC(NC(=O)C1(C(F)(F)F)CCN(C(=O)[C@@H]2CC[C@@]3(CCO3)CN2)CC1)C1CCC(F)(F)CC1` (stereo partly drawn) [Example 33] the same measures were 2.62 nM and 7.5 nM.
The matching figures for `CC(C)C1(c2noc(C3CCC(F)(F)CC3)n2)CCN(C(=O)[C@@H]2C[C@@H](O)CCN2)CC1` [Example 34]: more than 1000 nM and more than 333 nM.
Turning to `O=C([C@@H]1C[C@@H](O)C2(CCC2)CN1)N1CCC(C(=O)N2CCC(C(F)(F)F)C2)(C(F)(F)F)CC1` (stereo partly drawn) [Example 35], the IC50 was determined as 3.39 nM at human recombinant CTSC and 6.54 nM against CTSC in U937 cells.
For the molecule `CC(C)C1(c2noc(C3CCC(F)(F)CC3)n2)CCN(C(=O)[C@@H]2C[C@@H](O)C(C)(C)CN2)CC1` [Example 36], the IC50 at human recombinant CTSC amounted to 1.88 nM; against CTSC in U937 cells, 0.71 nM.
For the molecule `O=C([C@@H]1C[C@@H](O)C2(CCC2)CN1)N1CCC(C(=O)N2CCO[C@@H](C(F)(F)F)C2)(C(F)(F)F)CC1` [Example 37], the results for the half-inhibitory concentration (IC50) at human recombinant CTSC and on CTSC in U937 cells were 28.4 nM and 10.1 nM, respectively.
For `CC(C)C1(c2noc(C3CCC(F)(F)CC3)n2)CCN(C(=O)[C@H]2N[C@H]3CC[C@@H]2[C@H](O)C3)CC1` [Example 38] the same measures were more than 200 nM and 124 nM.
`O=C([C@@H]1C[C@@H](O)C2(CCC2)CN1)N1CCC(C(=O)N2CCO[C@H](C(F)(F)F)C2)(C(F)(F)F)CC1` [Example 39]: the IC50 was 13.3 nM on human recombinant CTSC and 7.18 nM on CTSC in U937 cells.
As for `O=C([C@@H]1CC[C@@]2(CCO2)CN1)N1CCC(c2noc(C3CC(F)(F)C3)n2)(C(F)(F)F)CC1` [Example 40], the IC50 at human recombinant CTSC came out at 19.6 nM; against CTSC in U937 cells, 37.9 nM.
With `CC(C)C1(c2noc(C3CCC(F)(F)CC3)n2)CCN(C(=O)C2CCC(C)(C)CN2)CC1` (stereo not drawn) [Example 41], the results for the 50% inhibitory concentration (IC50) on human recombinant CTSC and at CTSC in U937 cells were 18.5 nM and 6.95 nM, respectively.
With `CC(C)C1(c2noc(C3CCC(F)(F)CC3)n2)CCN(C(=O)C2CCC3(CCC3)CN2)CC1` (stereo not drawn) [Example 42], the IC50 on human recombinant CTSC is 7.19 nM; at CTSC in U937 cells, 2.28 nM.
Turning to `CC1CC[C@@H](C(=O)N2CCC(c3noc(C4CCC(F)(F)CC4)n3)(C(C)C)CC2)NC1` (stereo partly drawn) [Example 43], the half-inhibitory concentration (IC50) is more than 100 nM on human recombinant CTSC and 57.3 nM on CTSC in U937 cells.
For `O=C([C@@H]1C[C@@H](O)C2(CCC2)CN1)N1CCC(c2ccc(F)cn2)(c2noc(C3CC(F)(F)C3)n2)CC1` [Example 44] the same measures were 2.74 nM and 4.24 nM.
Consider `CC1(c2nc(C3(C(F)(F)F)CCN(C(=O)[C@@H]4C[C@@H](O)C5(CCC5)CN4)CC3)no2)CC(F)(F)C1` [Example 45], for which the IC50 at human recombinant CTSC came to 1.88 nM; on CTSC in U937 cells, 0.17 nM.
Turning to `CC(C)C1(c2noc(C3CCC(F)(F)CC3)n2)CCN(C(=O)[C@@H]2CCC3(CC3)CN2)CC1` [Example 46], the IC50 at human recombinant CTSC was determined as 53.5 nM; against CTSC in U937 cells, 42.5 nM.
Take `O=C(c1nc(C2(C(F)(F)F)CCN(C(=O)[C@@H]3C[C@@H](O)C4(CCC4)CN3)CC2)no1)N1CCC(F)(F)CC1` [Example 48]: the values for the IC50 on human recombinant CTSC and against CTSC in U937 cells were 3.07 nM and 4 nM, respectively.
On to `C[C@]1(F)C[C@H](c2nc(C3(C(F)(F)F)CCN(C(=O)[C@@H]4C[C@@H](O)C5(CCC5)CN4)CC3)no2)C1` [Example 49], for which the IC50 stood at 4.43 nM on human recombinant CTSC and 0.35 nM against CTSC in U937 cells.
Consider `O=C([C@@H]1C[C@@H](O)C2(CCC2)CN1)N1CCC(c2noc(C3CCC(F)(F)CO3)n2)(C(F)(F)F)CC1` (stereo partly drawn) [Example 50, (4-(5-(5,5-difluorotetrahydro-2H-pyran-2-yl)-1,2,4-oxadiazol-3-yl)-4-(trifluoromethyl)piperidin-1-yl)((7S,9R)-9-hydroxy-6-azaspiro[3.5]nonan-7-yl)methanone], for which the figures for the IC50 at human recombinant CTSC and against CTSC in U937 cells were 1.53 nM and 0.8 nM, respectively.
For `CC1(C)CN[C@H](C(=O)N2CCC(c3noc(C4CC(F)(F)C4)n3)(C(F)(F)F)CC2)C[C@H]1O` [Example 51, (4-(5-(3,3-Difluorocyclobutyl)-1,2,4-oxadiazol-3-yl)-4-(trifluoromethyl)piperidin-1-yl)((2S,4R)-4-hydroxy-5,5-dimethylpiperidin-2-yl)methanone] the same measures were 8.28 nM and 0.86 nM.
The matching figures for `O=C([C@@H]1C[C@@H](O)C2(CCC2)CN1)N1CCC(C(=O)N2CC[C@@H](C(F)(F)F)C2)(C(F)(F)F)CC1` [Example 52]: 8.16 nM and 10.2 nM.
For `CC1(C)CN(C(=O)c2nc(C3(C(F)(F)F)CCN(C(=O)[C@@H]4C[C@@H](O)C5(CCC5)CN4)CC3)no2)C1` [Example 53], the half-inhibitory concentration (IC50) came to 18.7 nM on human recombinant CTSC and 11.3 nM against CTSC in U937 cells.
For the molecule `CC(C)C1(c2nc(C3CC(F)(F)C3)no2)CCN(C(=O)[C@@H]2C[C@@H](O)C(C)(C)CN2)CC1` [Example 54], the IC50 at human recombinant CTSC was determined as 3.88 nM; on CTSC in U937 cells, 1.46 nM.
Consider `O=C([C@@H]1C[C@@H](O)C2(CCC2)CN1)N1CCC(C(=O)N2CC[C@H](C(F)(F)F)C2)(C(F)(F)F)CC1` [Example 55], for which the half-maximal inhibitory concentration (IC50) on human recombinant CTSC came out at 4.4 nM; at CTSC in U937 cells, 3.79 nM.
`CC1(C)CN[C@H](C(=O)N2CCC(c3noc(C4CCC(F)(F)CC4)n3)(C(F)(F)F)CC2)C[C@H]1O` [Example 56, (4-(5-(4,4-Difluorocyclohexyl)-1,2,4-oxadiazol-3-yl)-4-(trifluoromethyl)piperidin-1-yl)((2S,4R)-4-hydroxy-5,5-dimethylpiperidin-2-yl)methanone]: the results for the half-inhibitory concentration (IC50) at human recombinant CTSC and against CTSC in U937 cells were 2.06 nM and 0.71 nM, respectively.
